In patent US20230085307A1, “PYRIDAZINONE COMPOUND AND HERBICIDE” (NISSAN CHEMICAL CORPORATION, priority 2019, published 2023):

Experiments:
late watergrass = experiment: Test Example 1: herbicidal activity, application before weed generation under submerged conditions (Table 16, symbol A); type: in vivo, late watergrass (Echinochloa oryzicola); conditions: amount of applied herbicide 320 g/ha
How it was run: (§1)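 Submerged Wagner pots (alluvial soil, 4 cm water) sown with weed seeds and planted with 2.5-leaf rice seedlings; emulsifiable concentrate diluted in water applied to water surface on sowing day. Held in greenhouse at 25-30 °C; injury scored 0-5 by herbicidal rate after three weeks.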

Japanese bulrush = experiment: Test Example 1: herbicidal activity, application before weed generation under submerged conditions (Table 16, symbol B); type: in vivo, Japanese bulrush (Schoenoplectus juncoides); conditions: amount of applied herbicide 320 g/ha
How it was run: as §1

barnyard grass [1] = experiment: Test Example 3: herbicidal effect by foliage application, Wagner pot (Table 18, symbol H); type: in vivo, barnyard grass (Echinochloa crus-galli); conditions: amount of applied herbicide 320 g/ha
How it was run: (§2)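 Plants were sown in alluvial soil held under 0.1–0.5 cm standing water and grown 14 days in a greenhouse at 25–30 °C. An emulsifiable formulation, water-diluted to the set dose, was then sprayed onto the foliage, and effects were scored three weeks later using previously defined criteria.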

Chinese sprangletop = experiment: Test Example 3: herbicidal effect by foliage application, Wagner pot (Table 18, symbol D); type: in vivo, chinese sprangletop (Leptochloa chinensis); conditions: amount of applied herbicide 320 g/ha
How it was run: as §2

rice flat sedge = experiment: Test Example 3: herbicidal effect by foliage application, Wagner pot (Table 18, symbol E); type: in vivo, rice flat sedge (Cyperus iria); conditions: amount of applied herbicide 320 g/ha
How it was run: as §2

southern crabgrass = experiment: Test Example 4: herbicidal effect by soil treatment (Table 19, symbol F); type: in vivo, southern crabgrass (Digitaria ciliaris); conditions: amount of applied herbicide 320 g/ha
How it was run: (§3)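 Herbicidal effect was rated 3 weeks after treatment, using the scoring criteria of an earlier test. The compound, formulated as an emulsion and diluted in water to a set herbicide amount, had been sprayed uniformly on soil over freshly sown seeds. Growth took place in a greenhouse at 25° C. to 30° C.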

green foxtail [2] = experiment: Test Example 4: herbicidal effect by soil treatment (Table 19, symbol G); type: in vivo, green foxtail (Setaria viridis); conditions: amount of applied herbicide 320 g/ha
How it was run: as §3

blackgrass [3] = experiment: Test Example 4: herbicidal effect by soil treatment (Table 19, symbol J); type: in vivo, blackgrass (Alopecurus myosuroides); conditions: amount of applied herbicide 320 g/ha
How it was run: as §3

redroot pigweed [4] = experiment: Test Example 4: herbicidal effect by soil treatment (Table 19, symbol N); type: in vivo, redroot pigweed (Amaranthus retroflexus); conditions: amount of applied herbicide 320 g/ha
How it was run: as §3

green foxtail [5] = experiment: Test Example 5: herbicidal effect by foliage application, plastic box (Table 20, symbol G); type: in vivo, green foxtail (Setaria viridis); conditions: foliage application, 320 g/ha, three weeks after application
How it was run: (§4)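 Foliar spray test: emulsion formulation diluted in water to a set application rate, sprayed onto 14-day-old plants raised in diluvial soil at 25° C to 30° C under glass. Both herbicidal effect and crop effect rated visually three weeks later.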

barnyard grass [6] = experiment: Test Example 5: herbicidal effect by foliage application, plastic box (Table 20, symbol H); type: in vivo, barnyard grass (Echinochloa crus-galli); conditions: foliage application, 320 g/ha, three weeks after application
How it was run: as §4

blackgrass [7] = experiment: Test Example 5: herbicidal effect by foliage application, plastic box (Table 20, symbol J); type: in vivo, blackgrass (Alopecurus myosuroides); conditions: foliage application, 320 g/ha, three weeks after application
How it was run: as §4

Italian ryegrass = experiment: Test Example 5: herbicidal effect by foliage application, plastic box (Table 20, symbol K); type: in vivo, Italian ryegrass (Lolium multiflorum); conditions: foliage application, 320 g/ha, three weeks after application
How it was run: as §4

windgrass = experiment: Test Example 5: herbicidal effect by foliage application, plastic box (Table 20, symbol L); type: in vivo, windgrass (Apera spica-venti); conditions: foliage application, 320 g/ha, three weeks after application
How it was run: as §4

velvetleaf = experiment: Test Example 5: herbicidal effect by foliage application, plastic box (Table 20, symbol M); type: in vivo, velvetleaf (Abutilon theophrasti); conditions: foliage application, 320 g/ha, three weeks after application
How it was run: as §4

redroot pigweed [8] = experiment: Test Example 5: herbicidal effect by foliage application, plastic box (Table 20, symbol N); type: in vivo, redroot pigweed (Amaranthus retroflexus); conditions: foliage application, 320 g/ha, three weeks after application
How it was run: as §4

lambsquarters = experiment: Test Example 5: herbicidal effect by foliage application, plastic box (Table 20, symbol O); type: in vivo, lambsquarters (Chenopodium album); conditions: foliage application, 320 g/ha, three weeks after application
How it was run: as §4

persian speedwell = experiment: Test Example 5: herbicidal effect by foliage application, plastic box (Table 20, symbol R); type: in vivo, Persian speedwell (Veronica persica); conditions: foliage application, 320 g/ha, three weeks after application
How it was run: as §4

CCCC(=O)Oc1c(C)nn(C)c(=O)c1-c1c(-c2ccccc2OC)sc2cc(F)ccc12 [3-004]
Herbicidal effect, A: late watergrass (late watergrass): 5 (Herbicidal rate of 90% or more (almost completely withered))
Herbicidal effect, B: Japanese bulrush (Japanese bulrush): 3 (Herbicidal rate of 40% or more and less than 70%)
herbicidal effect on H: barnyard grass (barnyard grass [1]): 5 (Herbicidal rate of 90% or more (almost completely withered))
herbicidal effect on D: Chinese sprangletop (Chinese sprangletop): 4 (Herbicidal rate of 70% or more and less than 90%)
herbicidal effect on E: rice flat sedge (rice flat sedge): 5 (Herbicidal rate of 90% or more (almost completely withered))
herbicidal effect, F: southern crabgrass (southern crabgrass): 4 (Herbicidal rate of 70% or more and less than 90%)
herbicidal effect, G: green foxtail (green foxtail [2]): 4 (Herbicidal rate of 70% or more and less than 90%)
herbicidal effect, J: blackgrass (blackgrass [3]): 4 (Herbicidal rate of 70% or more and less than 90%)
herbicidal effect, N: redroot pigweed (redroot pigweed [4]): 5 (Herbicidal rate of 90% or more (almost completely withered))
G: green foxtail, herbicidal effect grade (green foxtail [5]): 4 (Herbicidal rate of 70% or more and less than 90%)
H: barnyard grass, herbicidal effect grade (barnyard grass [6]): 5 (Herbicidal rate of 90% or more (almost completely withered))
J: blackgrass, herbicidal effect grade (blackgrass [7]): 5 (Herbicidal rate of 90% or more (almost completely withered))
K: Italian ryegrass, herbicidal effect grade (Italian ryegrass): 5 (Herbicidal rate of 90% or more (almost completely withered))
L: windgrass, herbicidal effect grade (windgrass): 5 (Herbicidal rate of 90% or more (almost completely withered))
M: velvetleaf, herbicidal effect grade (velvetleaf): 5 (Herbicidal rate of 90% or more (almost completely withered))
N: redroot pigweed, herbicidal effect grade (redroot pigweed [8]): 5 (Herbicidal rate of 90% or more (almost completely withered))
O: lambsquarters, herbicidal effect grade (lambsquarters): 5 (Herbicidal rate of 90% or more (almost completely withered))
R: persian speedwell, herbicidal effect grade (persian speedwell): 5 (Herbicidal rate of 90% or more (almost completely withered))

COc1ccc(-c2sc3cc(F)ccc3c2-c2c(O)c(C)nn(C)c2=O)cc1 [3-005]
Herbicidal effect, A: late watergrass (late watergrass): 4 (Herbicidal rate of 70% or more and less than 90%)
Herbicidal effect, B: Japanese bulrush (Japanese bulrush): 4 (Herbicidal rate of 70% or more and less than 90%)
herbicidal effect on H: barnyard grass (barnyard grass [1]): 5 (Herbicidal rate of 90% or more (almost completely withered))
herbicidal effect on D: Chinese sprangletop (Chinese sprangletop): 3 (Herbicidal rate of 40% or more and less than 70%)
herbicidal effect on E: rice flat sedge (rice flat sedge): 5 (Herbicidal rate of 90% or more (almost completely withered))
herbicidal effect, F: southern crabgrass (southern crabgrass): 0 (Herbicidal rate of 5% or less (almost no effect))
herbicidal effect, G: green foxtail (green foxtail [2]): 3 (Herbicidal rate of 40% or more and less than 70%)
herbicidal effect, J: blackgrass (blackgrass [3]): 0 (Herbicidal rate of 5% or less (almost no effect))
herbicidal effect, N: redroot pigweed (redroot pigweed [4]): 5 (Herbicidal rate of 90% or more (almost completely withered))
G: green foxtail, herbicidal effect grade (green foxtail [5]): 4 (Herbicidal rate of 70% or more and less than 90%)
H: barnyard grass, herbicidal effect grade (barnyard grass [6]): 3 (Herbicidal rate of 40% or more and less than 70%)
J: blackgrass, herbicidal effect grade (blackgrass [7]): 0 (Herbicidal rate of 5% or less (almost no effect))
K: Italian ryegrass, herbicidal effect grade (Italian ryegrass): 3 (Herbicidal rate of 40% or more and less than 70%)
L: windgrass, herbicidal effect grade (windgrass): 3 (Herbicidal rate of 40% or more and less than 70%)
M: velvetleaf, herbicidal effect grade (velvetleaf): 5 (Herbicidal rate of 90% or more (almost completely withered))
N: redroot pigweed, herbicidal effect grade (redroot pigweed [8]): 5 (Herbicidal rate of 90% or more (almost completely withered))
O: lambsquarters, herbicidal effect grade (lambsquarters): 5 (Herbicidal rate of 90% or more (almost completely withered))
R: persian speedwell, herbicidal effect grade (persian speedwell): 5 (Herbicidal rate of 90% or more (almost completely withered))

CCCC(=O)Oc1c(C)nn(C)c(=O)c1-c1c(-c2ccccc2OCC)sc2cc(F)ccc12 [3-007]
Herbicidal effect, A: late watergrass (late watergrass): 5 (Herbicidal rate of 90% or more (almost completely withered))
Herbicidal effect, B: Japanese bulrush (Japanese bulrush): 5 (Herbicidal rate of 90% or more (almost completely withered))
herbicidal effect on H: barnyard grass (barnyard grass [1]): 5 (Herbicidal rate of 90% or more (almost completely withered))
herbicidal effect on D: Chinese sprangletop (Chinese sprangletop): 5 (Herbicidal rate of 90% or more (almost completely withered))
herbicidal effect on E: rice flat sedge (rice flat sedge): 5 (Herbicidal rate of 90% or more (almost completely withered))
herbicidal effect, F: southern crabgrass (southern crabgrass): 4 (Herbicidal rate of 70% or more and less than 90%)
herbicidal effect, G: green foxtail (green foxtail [2]): 3 (Herbicidal rate of 40% or more and less than 70%)
herbicidal effect, J: blackgrass (blackgrass [3]): 3 (Herbicidal rate of 40% or more and less than 70%)
herbicidal effect, N: redroot pigweed (redroot pigweed [4]): 4 (Herbicidal rate of 70% or more and less than 90%)
G: green foxtail, herbicidal effect grade (green foxtail [5]): 5 (Herbicidal rate of 90% or more (almost completely withered))
H: barnyard grass, herbicidal effect grade (barnyard grass [6]): 5 (Herbicidal rate of 90% or more (almost completely withered))
J: blackgrass, herbicidal effect grade (blackgrass [7]): 5 (Herbicidal rate of 90% or more (almost completely withered))
K: Italian ryegrass, herbicidal effect grade (Italian ryegrass): 5 (Herbicidal rate of 90% or more (almost completely withered))
L: windgrass, herbicidal effect grade (windgrass): 5 (Herbicidal rate of 90% or more (almost completely withered))
M: velvetleaf, herbicidal effect grade (velvetleaf): 5 (Herbicidal rate of 90% or more (almost completely withered))
N: redroot pigweed, herbicidal effect grade (redroot pigweed [8]): 5 (Herbicidal rate of 90% or more (almost completely withered))
O: lambsquarters, herbicidal effect grade (lambsquarters): 5 (Herbicidal rate of 90% or more (almost completely withered))
R: persian speedwell, herbicidal effect grade (persian speedwell): 5 (Herbicidal rate of 90% or more (almost completely withered))

COc1ccccc1-c1sc2cc(F)ccc2c1-c1c(OC(=O)c2ccco2)c(C)nn(C)c1=O [3-023]
Herbicidal effect, A: late watergrass (late watergrass): 3 (Herbicidal rate of 40% or more and less than 70%)
Herbicidal effect, B: Japanese bulrush (Japanese bulrush): 3 (Herbicidal rate of 40% or more and less than 70%)
herbicidal effect on H: barnyard grass (barnyard grass [1]): 5 (Herbicidal rate of 90% or more (almost completely withered))
herbicidal effect on D: Chinese sprangletop (Chinese sprangletop): 3 (Herbicidal rate of 40% or more and less than 70%)
herbicidal effect on E: rice flat sedge (rice flat sedge): 5 (Herbicidal rate of 90% or more (almost completely withered))
herbicidal effect, F: southern crabgrass (southern crabgrass): 3 (Herbicidal rate of 40% or more and less than 70%)
herbicidal effect, G: green foxtail (green foxtail [2]): 4 (Herbicidal rate of 70% or more and less than 90%)
herbicidal effect, J: blackgrass (blackgrass [3]): 4 (Herbicidal rate of 70% or more and less than 90%)
herbicidal effect, N: redroot pigweed (redroot pigweed [4]): 5 (Herbicidal rate of 90% or more (almost completely withered))
G: green foxtail, herbicidal effect grade (green foxtail [5]): 5 (Herbicidal rate of 90% or more (almost completely withered))
H: barnyard grass, herbicidal effect grade (barnyard grass [6]): 5 (Herbicidal rate of 90% or more (almost completely withered))
J: blackgrass, herbicidal effect grade (blackgrass [7]): 5 (Herbicidal rate of 90% or more (almost completely withered))
K: Italian ryegrass, herbicidal effect grade (Italian ryegrass): 5 (Herbicidal rate of 90% or more (almost completely withered))
L: windgrass, herbicidal effect grade (windgrass): 5 (Herbicidal rate of 90% or more (almost completely withered))
M: velvetleaf, herbicidal effect grade (velvetleaf): 5 (Herbicidal rate of 90% or more (almost completely withered))
N: redroot pigweed, herbicidal effect grade (redroot pigweed [8]): 5 (Herbicidal rate of 90% or more (almost completely withered))
O: lambsquarters, herbicidal effect grade (lambsquarters): 3 (Herbicidal rate of 40% or more and less than 70%)
R: persian speedwell, herbicidal effect grade (persian speedwell): 3 (Herbicidal rate of 40% or more and less than 70%)
